Results from US12404285B2, “KRAS G12D proteolysis targeting chimeras” (PAQ Therapeutics Inc., priority 2022, dated 2025).

Target: T1, KRAS (G12D)-HiBit in AsPc-1-KRAS (G12D)-HiBit-KI cell (Homo sapiens, UniProt P01116, G12D)
T1 construct: host or cells: AsPc-1-KRAS (G12D)-HiBit-KI cells (knock-in line)
Test: G12D HiBit assay
Assay type: cell-based
Conditions: 24 hours compound treatment, absolute DC50, read-out: Average PHA DC50
Method in brief: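 AsPc-1 cells with HiBiT knocked into KRAS G12D, seeded at 5×10^3/well and held overnight, then treated 24 h with 10-point 3-fold dilutions (300 nM to 0.015 nM). Lytic Nano-Glo HiBiT luminescence expressed as % of 0.1% DMSO control; absolute DC50 from curve fit.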

T1 sequence (P01116 1-188 isoform P01116-2 G12D): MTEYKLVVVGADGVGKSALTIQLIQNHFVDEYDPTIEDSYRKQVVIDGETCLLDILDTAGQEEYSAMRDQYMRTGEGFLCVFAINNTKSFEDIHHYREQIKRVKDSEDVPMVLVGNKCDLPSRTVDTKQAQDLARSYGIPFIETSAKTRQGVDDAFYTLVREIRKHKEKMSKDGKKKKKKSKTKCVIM

Structure (SMILES)	DC50 [nM]
C#Cc1c(F)ccc2cccc(-c3ncc4c(N5CC6CCC(C5)N6)nc(OC[C@@]56CCCN5[C@H](COC(=O)N5CCN(CCC7CCN(Cc8ccc9c(c8)n(C)c(=O)n9C8CCC(=O)NC8=O)CC7)CC5)CC6)nc4c3F)c12 (stereo partly drawn) [Compound 88, [(3S,8S)-8-[[4-(3,8-Diazabicyclo[3.2.1]octan-3-yl)-7-(8-ethynyl-7-fluoro-1-naphthyl)-8-fluoro-pyrido[4,3-d]pyrimidin-2-yl]oxymethyl]-1,2,3,5,6,7-hexahydropyrrolizin-3-yl]methyl 4-[2-[1-[[1-(2,6-dioxo-3-piperidyl)-3-methyl-2-oxo-benzimidazol-5-yl]methyl]-4-piperidyl]ethyl]piperazine-1-carboxylate]	< 100
C#Cc1c(F)ccc2cccc(-c3ncc4c(N5C[C@H]6CC[C@@H](C5)N6)nc(OC[C@@]56CCCN5[C@H](COC(=O)N5CCC(CC7CCN(c8ccc9c(c8)n(C)c(=O)n9C8CCC(=O)NC8=O)CC7)CC5)CC6)nc4c3F)c12 (stereo partly drawn) [Compound 90, ((3S,7aS)-7a-(((4-((1R,5S)-3,8-Diazabicyclo[3.2.1]octan-3-yl)-7-(8-ethynyl-7-fluoronaphthalen-1-yl)-8-fluoropyrido[4,3-d]pyrimidin-2-yl)oxy)methyl)hexahydro-1H-pyrrolizin-3-yl)methyl4-((1-(1-(2,6-dioxopiperidin-3-yl)-3-methyl-2-oxo-2,3-dihydro-1H-benzo[d]imidazol-5-yl)piperidin-4-yl)methyl)piperidine-1-carboxylate]	< 100

Results, then the molecule that gave them:

DC50 [nM]	Structure (SMILES)
< 100	C#Cc1c(F)ccc2cccc(-c3ncc4c(N5CC6CCC(C5)N6)nc(OC[C@@]56CCCN5[C@H](COC(=O)N5CC(OC7CCN(Cc8ccc9c(c8)n(C)c(=O)n9C8CCC(=O)NC8=O)CC7)C5)CC6)nc4c3F)c12 (stereo partly drawn) [Compound 89, [(3S,8S)-8-[[4-(3,8-Diazabicyclo[3.2.1]octan-3-yl)-7-(8-ethynyl-7-fluoro-1-naphthyl)-8-fluoro-pyrido[4,3-d]pyrimidin-2-yl]oxymethyl]-1,2,3,5,6,7-hexahydropyrrolizin-3-yl]methyl 3-[[1-[[1-(2,6-dioxo-3-piperidyl)-3-methyl-2-oxo-benzimidazol-5-yl]methyl]-4-piperidyl]oxy]azetidine-1-carboxylate]
< 100	C#Cc1c(F)ccc2cccc(-c3ncc4c(N5CC6CCC(C5)N6)nc(OC[C@@]56CCCN5[C@H](COC(=O)N5CCC(OCC#CC#Cc7ccc8c(c7)n(C)c(=O)n8C7CCC(=O)NC7=O)CC5)CC6)nc4c3F)c12 (stereo partly drawn) [Compound 92, [(3S,8S)-8-[[4-(3,8-Diazabicyclo[3.2.1]octan-3-yl)-7-(8-ethynyl-7-fluoro-1-naphthyl)-8-fluoro-pyrido[4,3-d]pyrimidin-2-yl]oxymethyl]-1,2,3,5,6,7-hexahydropyrrolizin-3-yl]methyl 4-[5-[1-(2,6-dioxo-3-piperidyl)-3-methyl-2-oxo-benzimidazol-5-yl]penta-2,4-diynoxy]piperidine-1-carboxylate]
< 100	C#Cc1c(F)ccc2cccc(-c3ncc4c(N5CC6CCC(C5)N6)nc(OC[C@@]56CCCN5[C@H](COC(=O)N5CCC(OCC#CC#Cc7cccc8c7n(C)c(=O)n8C7CCC(=O)NC7=O)CC5)CC6)nc4c3F)c12 (stereo partly drawn) [Compound 93, [(3S,8S)-8-[[4-(3,8-Diazabicyclo[3.2.1]octan-3-yl)-7-(8-ethynyl-7-fluoro-1-naphthyl)-8-fluoro-pyrido[4,3-d]pyrimidin-2-yl]oxymethyl]-1,2,3,5,6,7-hexahydropyrrolizin-3-yl]methyl4-[5-[1-(2,6-dioxo-3-piperidyl)-3-methyl-2-oxo-benzimidazol-4-yl]penta-2,4-diynoxy]piperidine-1-carboxylate]
